How the values were obtained:
[1] = test system: A375; experiment: CellTiter-Blue cell-based survival/proliferation assay, A375; conditions: Homo sapiens, A-375; A375 melanoma cell line, 48 h
Method: (§1) Cell-Based Proliferation Screening of Compounds
(§2) CellTiter-Blue cell-based survival/proliferation assay (Promega G8080) was performed on tumor cell lines. A total of 1·10^4 cells/well/50 μl were seeded in a 96-wells plate. Treatment was initiated by addition of a 2× drug solution of 1/10 serial dilutions ranging from 0 to 10 μM. Cells were grown for 48 h at 37° C. and then incubated with 10 μl/well of Promega CellTiter-Bleue reagent for 4 h at 37° C. The amount of resorufin dye formed was quantified by its fluorescence emission at 590 nm using a scanning multiwell spectrophotometer (OPTIMA, BMG labtech, France). A blank well without cells was used as a background control for the spectrophotometer.

[2] = test system: PLCPRF5; experiment: CellTiter-Blue cell-based survival/proliferation assay, PLCPRF5; conditions: Homo sapiens, PLC-PRF-5; PLC_PRF5 liver tumor cell line, 48 h
Summary of the method: (§3)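 Tenfold compound dilutions (0–10 μM) were added to 1·10^4 cells/well. Plates incubated 48 h at 37 °C. CellTiter-Blue reduction (4 h, 37 °C) was read as fluorescence at 590 nm, background-corrected with a cell-free blank.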

[3] = test system: CALU6; experiment: CellTiter-Blue cell-based survival/proliferation assay, CALU6; conditions: Homo sapiens, Calu-6; CALU6 lung tumor cell line, 48 h
Summary of the method: as §3

[4] = test system: A549; experiment: CellTiter-Blue cell-based survival/proliferation assay, A549; conditions: Homo sapiens; A549 lung tumor cell line, 48 h
Summary of the method: as §3

[5] = test system: TOV112D; experiment: CellTiter-Blue cell-based survival/proliferation assay, TOV112D; conditions: Homo sapiens; TOV112D ovary tumor cell line, 48 h
Summary of the method: as §3

[6] = test system: DU145; experiment: CellTiter-Blue cell-based survival/proliferation assay, DU145; conditions: Homo sapiens, DU-145; DU145 prostate tumor cell line, 48 h
Summary of the method: as §3

[7] = test system: PC3; experiment: CellTiter-Blue cell-based survival/proliferation assay, PC3; conditions: Homo sapiens, PC-3; PC3 prostate tumor cell line, 48 h
Summary of the method: as §3

[8] = test system: H1299; experiment: CellTiter-Blue cell-based survival/proliferation assay, H1299; conditions: Homo sapiens, NCI-H1299; H1299 lung tumor cell line, 48 h
Summary of the method: as §3

[9] = test system: ACHN; experiment: CellTiter-Blue cell-based survival/proliferation assay, ACHN; conditions: Homo sapiens; ACHN kidney tumor cell line, 48 h
Summary of the method: as §3

[10] = test system: U2OS; experiment: CellTiter-Blue cell-based survival/proliferation assay, U2OS; conditions: Homo sapiens; U2OS osteosarcoma cell line, 48 h
Method: as §1, §2

[11] = test system: PANC1; experiment: CellTiter-Blue cell-based survival/proliferation assay, PANC1; conditions: Homo sapiens, PANC-1; PANC_1 pancreas tumor cell line, 48 h
Summary of the method: as §3

[12] = test system: DLD1; experiment: CellTiter-Blue cell-based survival/proliferation assay, DLD1; conditions: Homo sapiens, DLD-1; DLD_1 colorectal tumor cell line, 48 h
Summary of the method: as §3

[13] = test system: A4513; experiment: CellTiter-Blue cell-based survival/proliferation assay, A4513; conditions: Homo sapiens; A4513 Ewing cell line, 48 h
Method: as §1, §2

[14] = test system: HGC27; experiment: CellTiter-Blue cell-based survival/proliferation assay, HGC27; conditions: Homo sapiens, HGC-27; HGC27 stomach tumor cell line, 48 h
Summary of the method: as §3

[15] = test system: OPM2; experiment: CellTiter-Blue cell-based survival/proliferation assay, OPM2; conditions: Homo sapiens, OPM-2, Myeloma cell line OPM2, 48 h, read-out: Anti-tumoral activity (measured IC50) OPM2
Summary of the method: as §3

[16] = test system: BT20; experiment: CellTiter-Blue cell-based survival/proliferation assay, BT20; conditions: Homo sapiens, BT-20; BT20 breast tumor cell line, 48 h
Summary of the method: as §3

[17] = test system: A498; experiment: CellTiter-Blue cell-based survival/proliferation assay, A498; conditions: Homo sapiens; A498 kidney tumor cell line, 48 h
Summary of the method: as §3

[18] = test system: HEP2; experiment: CellTiter-Blue cell-based survival/proliferation assay, HEP2; conditions: Homo sapiens, HEp-2; HEP2 head & neck tumor cell line, 48 h
Summary of the method: as §3

[19] = test system: CLS354; experiment: CellTiter-Blue cell-based survival/proliferation assay, CLS354; conditions: Homo sapiens, CLS-354; CLS354_4 head & neck tumor cell line, 48 h
Summary of the method: as §3

[20] = test system: AGS; experiment: CellTiter-Blue cell-based survival/proliferation assay, AGS; conditions: Homo sapiens; AGS stomach tumor cell line, 48 h
Summary of the method: as §3

[21] = test system: HUT78; experiment: CellTiter-Blue cell-based survival/proliferation assay, HUT78; conditions: Homo sapiens, Lymphoma cell line HUT78, 48 h, read-out: Anti-tumoral activity (measured IC50) HUT78
Summary of the method: as §3

[22] = test system: KARPAS299; experiment: CellTiter-Blue cell-based survival/proliferation assay, KARPAS299; conditions: Homo sapiens, KARPAS-299, Lymphoma cell line KARPAS299, 48 h, read-out: Anti-tumoral activity (measured IC50) KARPAS299
Summary of the method: as §3

[23] = test system: HEPG2; experiment: CellTiter-Blue cell-based survival/proliferation assay, HEPG2; conditions: Homo sapiens; HEPG2 liver tumor cell line, 48 h
Summary of the method: as §3

[24] = test system: HL60; experiment: CellTiter-Blue cell-based survival/proliferation assay, HL60; conditions: Homo sapiens, HL-60, Leukemia cell line HL60, 48 h, read-out: Anti-tumoral activity (measured IC50) HL60
Summary of the method: as §3

[25] = test system: U87MG; experiment: CellTiter-Blue cell-based survival/proliferation assay, U87MG; conditions: Homo sapiens, U-87 MG; U87_MG glioblastoma cell line, 48 h
Method: as §1, §2

[26] = test system: BXPC3; experiment: CellTiter-Blue cell-based survival/proliferation assay, BXPC3; conditions: Homo sapiens, BXPC-3; BXPC3 pancreas tumor cell line, 48 h
Summary of the method: as §3

[27] = test system: REC1; experiment: CellTiter-Blue cell-based survival/proliferation assay, REC1; conditions: Homo sapiens, Lymphoma cell line REC1, 48 h, read-out: Anti-tumoral activity (measured IC50) REC1
Summary of the method: as §3

[28] = test system: SW579; experiment: CellTiter-Blue cell-based survival/proliferation assay, SW579; conditions: Homo sapiens; SW579 head & neck tumor cell line, 48 h
Summary of the method: as §3

[29] = test system: U118; experiment: CellTiter-Blue cell-based survival/proliferation assay, U118; conditions: Homo sapiens; U118 glioblastoma cell line, 48 h
Method: as §1, §2

[30] = test system: MESSA; experiment: CellTiter-Blue cell-based survival/proliferation assay, MESSA; conditions: Homo sapiens, MES-SA; MESSA ovary tumor cell line, 48 h
Summary of the method: as §3

[31] = test system: MELWO; experiment: CellTiter-Blue cell-based survival/proliferation assay, MELWO; conditions: Homo sapiens; MEL_WO melanoma cell line, 48 h
Method: as §1, §2

[32] = test system: MDAMB231; experiment: CellTiter-Blue cell-based survival/proliferation assay, MDAMB231; conditions: Homo sapiens, MDA-MB-231; MDAMB231 breast tumor cell line, 48 h
Summary of the method: as §3

[33] = test system: HCT116; experiment: CellTiter-Blue cell-based survival/proliferation assay, HCT116; conditions: Homo sapiens, HCT-116; HCT116 colorectal tumor cell line, 48 h
Summary of the method: as §3

| Structure (SMILES) | IC50 [1] [nM] | IC50 [2] [nM] | IC50 [3] [nM] | IC50 [4] [nM] | IC50 [5] [nM] | IC50 [6] [nM] | IC50 [7] [nM] | IC50 [8] [nM] | IC50 [9] [nM] | IC50 [10] [nM] | IC50 [11] [nM] | IC50 [12] [nM] | IC50 [13] [nM] | IC50 [14] [nM] | IC50 [15] [nM] | IC50 [16] [nM] | IC50 [17] [nM] | IC50 [18] [nM] | IC50 [19] [nM] | IC50 [20] [nM] | other results |
| --- | --- | --- | --- | --- | --- | --- | --- | --- | --- | --- | --- | --- | --- | --- | --- | --- | --- | --- | --- | --- | --- |
| CCOCc1ccc(C)c(Nc2ncc(-c3ccc(N4CCNC4=O)cc3)s2)c1 [Example 014, 1-{4-[2-(5-Ethoxymethyl-(2-methyl-phenylamino))-thiazol-5-yl]-phenyl}-imidazolidin-2-one] | > 1000 | > 1000 | > 1000 | > 1000 | > 1000 | > 1000 | > 1000 | > 1000 | > 1000 | > 1000 | > 1000 | > 1000 | 500 to 1000 | > 1000 | > 1000 | > 1000 | > 1000 | > 1000 | > 1000 | > 1000 | IC50 [21]: > 1000 nM; IC50 [22]: 100 to 500 nM; IC50 [23]: > 1000 nM; IC50 [24]: > 1000 nM; IC50 [25]: > 1000 nM; IC50 [26]: > 1000 nM; IC50 [27]: > 1000 nM; IC50 [28]: > 1000 nM; IC50 [29]: > 1000 nM; IC50 [30]: > 1000 nM; IC50 [31]: > 1000 nM; IC50 [32]: > 1000 nM; IC50 [33]: > 1000 nM |
| CCOCc1ccc(C)c(Nc2nc(-c3ccc(-n4ccnc4)cc3)cs2)c1 [Example 017, (5-Ethoxymethyl-2-methyl-phenyl)-[4-(4-imidazol-1-yl-phenyl)-thiazol-2-yl]-amine] | > 1000 | > 1000 | > 1000 | > 1000 | > 1000 | > 1000 | > 1000 | > 1000 | > 1000 | > 1000 | > 1000 | > 1000 | > 1000 | > 1000 | > 1000 | > 1000 | > 1000 | > 1000 | > 1000 | > 1000 | IC50 [21]: > 1000 nM; IC50 [22]: > 1000 nM; IC50 [23]: > 1000 nM; IC50 [24]: > 1000 nM; IC50 [25]: > 1000 nM; IC50 [26]: > 1000 nM; IC50 [27]: > 1000 nM; IC50 [28]: > 1000 nM; IC50 [29]: > 1000 nM; IC50 [30]: > 1000 nM; IC50 [31]: > 1000 nM; IC50 [32]: > 1000 nM; IC50 [33]: > 1000 nM |
| CCOCc1cc(C)cc(Nc2nc(-c3ccc(N4CCNC4=O)cc3)cs2)c1 [Example 018, 1-{4-[2-(3-Ethoxymethyl-(5-methyl-phenylamino))-thiazol-4-yl]-phenyl}-imidazolidin-2-one] | ≤ 100 | > 1000 | > 1000 | ≤ 100 | ≤ 100 | > 1000 | > 1000 | > 1000 | 500 to 1000 | 100 to 500 | > 1000 | > 1000 | ≤ 100 | 500 to 1000 | ≤ 100 | > 1000 | 500 to 1000 | ≤ 100 | ≤ 100 | > 1000 | IC50 [21]: ≤ 100 nM; IC50 [22]: ≤ 100 nM; IC50 [23]: > 1000 nM; IC50 [24]: ≤ 100 nM; IC50 [25]: > 1000 nM; IC50 [26]: > 1000 nM; IC50 [27]: ≤ 100 nM; IC50 [28]: > 1000 nM; IC50 [29]: > 1000 nM; IC50 [30]: > 1000 nM; IC50 [31]: > 1000 nM; IC50 [32]: > 1000 nM; IC50 [33]: 100 to 500 nM |

— patent US10570122B2, “Compounds with anti-tumoral activity” (AB Science, priority 2015, dated 2020)
